Test results as given in ChEMBL document CHEMBL6092194, “Development of membrane-targeting chalcone derivatives as antibacterial agents against multidrug-resistant bacteria” (Eur J Med Chem, 2024).

Experiments:
Staphylococcus aureus [1] = assay: Bactericidal activity against Staphylococcus aureus ATCC43300 in presence of 50% plasma; type: functional
Cell membrane = assay: Induction of inner membrane permeabilization in Staphylococcus aureus ATCC43300 assessed as fold increase in fluorescence intensity at 8 microg/ml incubated for 20 mins by PI uptake assay relative to negative control; type: subcellular; details: dose 8.0 µg/ml
Staphylococcus aureus [2] = assay: Antibacterial activity against Staphylococcus aureus ATCC43300 infected in sepsis mouse model assessed as log reduction in bacterial load in liver at 5 mg/kg pre-infected with bacteria for 1 hrs followed by compound administration at 12 hrs interval for 2 days relative to control; type: functional; details: time 2 day
Escherichia coli = assay: Antibacterial activity against Escherichia coli ATCC25922 infected in sepsis mouse model assessed as log reduction in bacterial load in spleen at 5 mg/kg pre-infected with bacteria for 1 hrs followed by compound administration at 12 hrs interval for 2 days relative to control; type: functional; details: time 2 day

## CCCCCCOc1cc[n+](CCCOc2ccc(/C=C/C(=O)c3ccc(OCCC[n+]4ccc(OCCCCCC)cc4)cc3)cc2)cc1.[Br-].[Br-]
Staphylococcus aureus [1]
  MBC: 4 µg/mL
Cell membrane
  fold change (FC): 1.5
Staphylococcus aureus [2]
  log(activity): 0.91
Escherichia coli
  log(activity): 1.92
